Results reported in ChEMBL document CHEMBL1201862, “PubChem BioAssay data set” (2004).
Calls of active or inactive are those of the source.

How the values were obtained:
[1] = target: T1, Voltage-gated N-type calcium channel alpha-1B subunit/Amyloid beta A4 precursor protein-binding family A member 1 (Homo sapiens, UniProt Q00975+Q02410); assay type: protein assay
[2] = target: T1, Voltage-gated N-type calcium channel alpha-1B subunit/Amyloid beta A4 precursor protein-binding family A member 1; experiment: disruptors of Mint-PDZ/N-type channel peptide interaction – biochemical, HTRF, set 2, SAR follow-up (AID 434980); assay type: functional
[3] = target: T1, Voltage-gated N-type calcium channel alpha-1B subunit/Amyloid beta A4 precursor protein-binding family A member 1; assay type: protein assay; remark: listed apart in the source
[4] = target: T1, Voltage-gated N-type calcium channel alpha-1B subunit/Amyloid beta A4 precursor protein-binding family A member 1; experiment: disruptors of Mint-PDZ/N-type channel peptide interaction – biochemical, HTRF, SAR follow-up (AID 2489); assay type: functional
[5] = target: Bcl-2-like protein 1 (Homo sapiens, UniProt Q07817); experiment: BCL-XL inhibitors, dose response, selectivity assay for MCL1 inhibitor project, biochemical, fluorescence polarization, 1536-well (AID 2218)
[6] = target: Induced myeloid leukemia cell differentiation protein Mcl-1 (Homo sapiens, UniProt Q07820); experiment: MCL1-BIM BH3 interaction inhibitors, dose response, biochemical, fluorescence polarization, BIM-BH3 peptide, 1536-well (AID 2217)
[7] = target: T2, Tyrosine-protein phosphatase non-receptor type 7 (Homo sapiens, UniProt P35236); experiment: inhibitors of human HePTP phosphatase, […], biochemical, absorbance, leukemia target (AID 521); assay type: functional
T2 sequence (P35236 whole entry): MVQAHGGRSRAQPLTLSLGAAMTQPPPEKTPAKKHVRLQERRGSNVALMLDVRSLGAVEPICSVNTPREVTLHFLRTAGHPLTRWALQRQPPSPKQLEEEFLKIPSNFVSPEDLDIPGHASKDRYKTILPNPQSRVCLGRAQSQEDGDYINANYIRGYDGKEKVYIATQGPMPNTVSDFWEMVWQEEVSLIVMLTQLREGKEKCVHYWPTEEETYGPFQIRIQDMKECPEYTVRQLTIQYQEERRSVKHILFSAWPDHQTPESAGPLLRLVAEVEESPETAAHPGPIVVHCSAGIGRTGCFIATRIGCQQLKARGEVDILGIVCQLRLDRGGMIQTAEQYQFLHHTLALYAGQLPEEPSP

[8] = target: T3, Bcl-2-like protein 10 (Homo sapiens, UniProt Q9HD36); experiment: displacers of TR3 peptide from Bcl-B, primary screen, selectivity assay for Bfl-1 inhibitor project, biochemical, fluorescence polarization, FITC-TR3 peptide (AID 748);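 note: fluorescence polarization from a fluorescein-labelled TR3 peptide binding purified Bcl-B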
T3 sequence (Q9HD36 whole entry): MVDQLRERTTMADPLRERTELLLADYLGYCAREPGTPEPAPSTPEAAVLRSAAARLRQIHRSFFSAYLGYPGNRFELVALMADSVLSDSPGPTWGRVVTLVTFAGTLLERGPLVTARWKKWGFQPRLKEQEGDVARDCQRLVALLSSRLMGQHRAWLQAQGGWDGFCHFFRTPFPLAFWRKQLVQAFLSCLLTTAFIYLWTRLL

[9] = target: Genome polyprotein (dengue virus type 2, UniProt P29990); experiment: Dengue-2 NS5 methyltransferase inhibitors, primary screen, biochemical, confirmation dose response (AID 588689); assay type: functional
[10] = target: G-protein coupled receptor 35 (Homo sapiens, UniProt Q9HC97); experiment: GPR35 antagonists blocking zaprinast-driven arrestin recruitment, primary screen, imaging, U2OS, beta-arrestin-GFP, zaprinast agonist (AID 2058); assay type: functional;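 note: antagonist potency meaning inhibition of agonist-induced arrestin redistribution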
[11] = target: Cyclin-dependent kinase 5/CDK5 activator 1 (Homo sapiens, UniProt Q00535); experiment: CDK5/p35 kinase inhibitors, dose response, biochemical, cherry-picked samples, set 2 (AID 504545)
[12] = target: T4, CAAX prenyl protease 2 (Saccharomyces cerevisiae S288c, UniProt Q03530); assay type: biochemical
T4 sequence (Q03530 whole entry): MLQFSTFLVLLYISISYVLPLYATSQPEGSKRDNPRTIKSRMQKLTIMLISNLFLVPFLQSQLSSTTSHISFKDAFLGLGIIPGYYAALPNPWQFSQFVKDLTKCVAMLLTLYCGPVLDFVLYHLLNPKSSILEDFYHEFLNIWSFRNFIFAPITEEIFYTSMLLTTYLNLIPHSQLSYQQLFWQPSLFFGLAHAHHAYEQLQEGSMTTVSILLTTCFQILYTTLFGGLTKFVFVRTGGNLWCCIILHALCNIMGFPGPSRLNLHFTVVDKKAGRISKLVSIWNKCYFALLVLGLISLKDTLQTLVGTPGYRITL

[13] = target: Trypsin (Sus scrofa, UniProt P00761); experiment: porcine trypsin inhibitors, dose response, selectivity assay for Rce1 protease inhibitor project, biochemical, quenched peptide fluorescence, cherry-pick (AID 488789)
[14] = target: T5, Histone-lysine N-methyltransferase NSD2 (Homo sapiens, UniProt O96028); assay type: biochemical
T5 sequence (O96028 whole entry): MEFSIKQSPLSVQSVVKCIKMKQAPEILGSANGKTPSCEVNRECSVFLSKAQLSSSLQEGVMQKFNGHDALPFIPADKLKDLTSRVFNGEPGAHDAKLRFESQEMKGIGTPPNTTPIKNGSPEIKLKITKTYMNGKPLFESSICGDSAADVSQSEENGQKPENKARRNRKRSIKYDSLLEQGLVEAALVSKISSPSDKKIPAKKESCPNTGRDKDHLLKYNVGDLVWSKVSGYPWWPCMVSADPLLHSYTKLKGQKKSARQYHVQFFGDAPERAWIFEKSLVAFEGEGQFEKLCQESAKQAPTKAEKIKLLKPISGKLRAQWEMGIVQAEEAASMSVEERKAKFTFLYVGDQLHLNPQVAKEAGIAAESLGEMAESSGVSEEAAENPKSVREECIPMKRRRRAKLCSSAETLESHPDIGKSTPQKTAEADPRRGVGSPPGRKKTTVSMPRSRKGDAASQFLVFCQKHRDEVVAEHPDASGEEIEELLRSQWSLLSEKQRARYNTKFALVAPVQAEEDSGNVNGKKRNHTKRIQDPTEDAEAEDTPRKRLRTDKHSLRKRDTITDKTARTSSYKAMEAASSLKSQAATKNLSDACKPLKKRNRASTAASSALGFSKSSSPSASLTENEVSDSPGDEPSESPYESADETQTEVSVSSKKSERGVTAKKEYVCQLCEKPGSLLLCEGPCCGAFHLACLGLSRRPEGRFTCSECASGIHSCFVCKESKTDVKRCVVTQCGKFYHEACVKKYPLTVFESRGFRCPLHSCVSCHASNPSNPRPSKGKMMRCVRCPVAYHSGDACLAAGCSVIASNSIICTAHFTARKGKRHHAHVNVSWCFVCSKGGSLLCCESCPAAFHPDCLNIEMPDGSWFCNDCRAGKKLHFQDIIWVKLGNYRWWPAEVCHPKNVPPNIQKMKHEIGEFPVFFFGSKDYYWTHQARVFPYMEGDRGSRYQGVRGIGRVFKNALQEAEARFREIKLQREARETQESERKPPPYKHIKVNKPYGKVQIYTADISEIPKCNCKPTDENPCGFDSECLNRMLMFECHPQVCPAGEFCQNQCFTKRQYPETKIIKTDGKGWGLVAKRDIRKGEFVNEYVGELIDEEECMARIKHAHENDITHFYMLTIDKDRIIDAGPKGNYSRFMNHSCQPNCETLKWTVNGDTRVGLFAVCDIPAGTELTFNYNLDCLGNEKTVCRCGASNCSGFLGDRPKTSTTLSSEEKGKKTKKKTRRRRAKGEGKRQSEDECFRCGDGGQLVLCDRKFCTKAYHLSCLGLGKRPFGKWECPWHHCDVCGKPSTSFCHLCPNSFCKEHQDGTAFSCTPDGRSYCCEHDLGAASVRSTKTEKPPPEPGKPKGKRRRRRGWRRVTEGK

[15] = AlphaScreen signal interference compounds, dose response, artefact control for ARNT-TACC3 interaction inhibitor project, biochemical, luminescence, cherry-pick (AID 651705); assay type: functional;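 note: AlphaScreen bead proximity signal that flags compounds interfering with the detection technology; potency reflects signal decrease which marks the compound as an assay artifact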
[16] = target: Glucose-6-phosphate 1-dehydrogenase (Homo sapiens, UniProt P11413); experiment: human G6PD enzyme inhibitors, dose response, selectivity assay for P. falciparum G6PD inhibitor project, biochemical, fluorescence (AID 504792); assay type: functional
[17] = target: T6, Hexokinase HKDC1 (Homo sapiens, UniProt Q2TB90); experiment: HKDC1 hexokinase inhibitors, dose response, biochemical, W721R variant (AID 504729); assay type: functional
T6 sequence (Q2TB90 whole entry): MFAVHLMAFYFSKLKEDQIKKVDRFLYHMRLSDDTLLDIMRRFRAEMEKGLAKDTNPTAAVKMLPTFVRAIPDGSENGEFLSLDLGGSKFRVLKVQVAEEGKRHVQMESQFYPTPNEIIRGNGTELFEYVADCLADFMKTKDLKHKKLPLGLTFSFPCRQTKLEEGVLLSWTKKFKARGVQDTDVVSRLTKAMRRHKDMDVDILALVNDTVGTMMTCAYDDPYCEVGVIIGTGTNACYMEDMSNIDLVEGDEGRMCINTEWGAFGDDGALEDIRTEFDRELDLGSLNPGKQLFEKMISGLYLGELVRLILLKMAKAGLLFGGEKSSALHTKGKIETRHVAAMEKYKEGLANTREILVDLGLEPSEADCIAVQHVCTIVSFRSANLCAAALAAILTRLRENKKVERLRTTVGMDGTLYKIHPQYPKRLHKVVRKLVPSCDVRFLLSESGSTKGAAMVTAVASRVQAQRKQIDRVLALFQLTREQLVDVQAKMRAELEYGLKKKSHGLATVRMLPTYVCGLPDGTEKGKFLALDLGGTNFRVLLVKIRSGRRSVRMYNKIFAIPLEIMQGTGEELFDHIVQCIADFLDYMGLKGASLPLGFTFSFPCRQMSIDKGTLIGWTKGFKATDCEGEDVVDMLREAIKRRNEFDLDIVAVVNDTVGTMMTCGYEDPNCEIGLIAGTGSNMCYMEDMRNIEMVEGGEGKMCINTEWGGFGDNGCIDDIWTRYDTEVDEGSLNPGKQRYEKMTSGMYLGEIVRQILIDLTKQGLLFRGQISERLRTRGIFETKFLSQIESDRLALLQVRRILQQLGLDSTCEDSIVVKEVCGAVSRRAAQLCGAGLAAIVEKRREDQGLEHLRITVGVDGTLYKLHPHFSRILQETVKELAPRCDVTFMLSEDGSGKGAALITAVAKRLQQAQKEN

[18] = target: T7, Tyrosyl-DNA phosphodiesterase 2 (Homo sapiens, UniProt O95551); experiment: human TDP2 enzyme inhibitors, dose response, biochemical, epi absorbance, IC50 (AID 743297)
T7 sequence (O95551 whole entry): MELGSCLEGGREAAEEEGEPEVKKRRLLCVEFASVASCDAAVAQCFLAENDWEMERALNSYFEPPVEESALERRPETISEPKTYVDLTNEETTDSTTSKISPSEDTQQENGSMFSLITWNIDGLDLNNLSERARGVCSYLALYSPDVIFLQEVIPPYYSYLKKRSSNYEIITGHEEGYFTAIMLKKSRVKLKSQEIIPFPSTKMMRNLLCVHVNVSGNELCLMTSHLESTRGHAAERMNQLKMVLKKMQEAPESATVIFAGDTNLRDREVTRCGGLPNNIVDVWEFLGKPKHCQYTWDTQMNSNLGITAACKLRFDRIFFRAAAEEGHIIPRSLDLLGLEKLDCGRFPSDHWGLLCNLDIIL

[19] = target: X-box-binding protein 1 (Homo sapiens, UniProt P17861); assay type: functional, Cricetulus griseus;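 note: confirmatory dose-response counter-screen serving a CHOP assay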
Chain of X-box-binding protein 1 (P17861 whole entry): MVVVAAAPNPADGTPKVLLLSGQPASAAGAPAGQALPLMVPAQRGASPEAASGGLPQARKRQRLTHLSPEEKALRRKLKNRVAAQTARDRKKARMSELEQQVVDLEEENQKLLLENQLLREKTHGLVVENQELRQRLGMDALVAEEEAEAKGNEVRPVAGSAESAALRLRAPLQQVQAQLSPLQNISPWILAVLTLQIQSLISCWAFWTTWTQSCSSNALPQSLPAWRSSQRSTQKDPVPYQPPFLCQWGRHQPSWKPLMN

T1 sequence (Q00975 whole entry): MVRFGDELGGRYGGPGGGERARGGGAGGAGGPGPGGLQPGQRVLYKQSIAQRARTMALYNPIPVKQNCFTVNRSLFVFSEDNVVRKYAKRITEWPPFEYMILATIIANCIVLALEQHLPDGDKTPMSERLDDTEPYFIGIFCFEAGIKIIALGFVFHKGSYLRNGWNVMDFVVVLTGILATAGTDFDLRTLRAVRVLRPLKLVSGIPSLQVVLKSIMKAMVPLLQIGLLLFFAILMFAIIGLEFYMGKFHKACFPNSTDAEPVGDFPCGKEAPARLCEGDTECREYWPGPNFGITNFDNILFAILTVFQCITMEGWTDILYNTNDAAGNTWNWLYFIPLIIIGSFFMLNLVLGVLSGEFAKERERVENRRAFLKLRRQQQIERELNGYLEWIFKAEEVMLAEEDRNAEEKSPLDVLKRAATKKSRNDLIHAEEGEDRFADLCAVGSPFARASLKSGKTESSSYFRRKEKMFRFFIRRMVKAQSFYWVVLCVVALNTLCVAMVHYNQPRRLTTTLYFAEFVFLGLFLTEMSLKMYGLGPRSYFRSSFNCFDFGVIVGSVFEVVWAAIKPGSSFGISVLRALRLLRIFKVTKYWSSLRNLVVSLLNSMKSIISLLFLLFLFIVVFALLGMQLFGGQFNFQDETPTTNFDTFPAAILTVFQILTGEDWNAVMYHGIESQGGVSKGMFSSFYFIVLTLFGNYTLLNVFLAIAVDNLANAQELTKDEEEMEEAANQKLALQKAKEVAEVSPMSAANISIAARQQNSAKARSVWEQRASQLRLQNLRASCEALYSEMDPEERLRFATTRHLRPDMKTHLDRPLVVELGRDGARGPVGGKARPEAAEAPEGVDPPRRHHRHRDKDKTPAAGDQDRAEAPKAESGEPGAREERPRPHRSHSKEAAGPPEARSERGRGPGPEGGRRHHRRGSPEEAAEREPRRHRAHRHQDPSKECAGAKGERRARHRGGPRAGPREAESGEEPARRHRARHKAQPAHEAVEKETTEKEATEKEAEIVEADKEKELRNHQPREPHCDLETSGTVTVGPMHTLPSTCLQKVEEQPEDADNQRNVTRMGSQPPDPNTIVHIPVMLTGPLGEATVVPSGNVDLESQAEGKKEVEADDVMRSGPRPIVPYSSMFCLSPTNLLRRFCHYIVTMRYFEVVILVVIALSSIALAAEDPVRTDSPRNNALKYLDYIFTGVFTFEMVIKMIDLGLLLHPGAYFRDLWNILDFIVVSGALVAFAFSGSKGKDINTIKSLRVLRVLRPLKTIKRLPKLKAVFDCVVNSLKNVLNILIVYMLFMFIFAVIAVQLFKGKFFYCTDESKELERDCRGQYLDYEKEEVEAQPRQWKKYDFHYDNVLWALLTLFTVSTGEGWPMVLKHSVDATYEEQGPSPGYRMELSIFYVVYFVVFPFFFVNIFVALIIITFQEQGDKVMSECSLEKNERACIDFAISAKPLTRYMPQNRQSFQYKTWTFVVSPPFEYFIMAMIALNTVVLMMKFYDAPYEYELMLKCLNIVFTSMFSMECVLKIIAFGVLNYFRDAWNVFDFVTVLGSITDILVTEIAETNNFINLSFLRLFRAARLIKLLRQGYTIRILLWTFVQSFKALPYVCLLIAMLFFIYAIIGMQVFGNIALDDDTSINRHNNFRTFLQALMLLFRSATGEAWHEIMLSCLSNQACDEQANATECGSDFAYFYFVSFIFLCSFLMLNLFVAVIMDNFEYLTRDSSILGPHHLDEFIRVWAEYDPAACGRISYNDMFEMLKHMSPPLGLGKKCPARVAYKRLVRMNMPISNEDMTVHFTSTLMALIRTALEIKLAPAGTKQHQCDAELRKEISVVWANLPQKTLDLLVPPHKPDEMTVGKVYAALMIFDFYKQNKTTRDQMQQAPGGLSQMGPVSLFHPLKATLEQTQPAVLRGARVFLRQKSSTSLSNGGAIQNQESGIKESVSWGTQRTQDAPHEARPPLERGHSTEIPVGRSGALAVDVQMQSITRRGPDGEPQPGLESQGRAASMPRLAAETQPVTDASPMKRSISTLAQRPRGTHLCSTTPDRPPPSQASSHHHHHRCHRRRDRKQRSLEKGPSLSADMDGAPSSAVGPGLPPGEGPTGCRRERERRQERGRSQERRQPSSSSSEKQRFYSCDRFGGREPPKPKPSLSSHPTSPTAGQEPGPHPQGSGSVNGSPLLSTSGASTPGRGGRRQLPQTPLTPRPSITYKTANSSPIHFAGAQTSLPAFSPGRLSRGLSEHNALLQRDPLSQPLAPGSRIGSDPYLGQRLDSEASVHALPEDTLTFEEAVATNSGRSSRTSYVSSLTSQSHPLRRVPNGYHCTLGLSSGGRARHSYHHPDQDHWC
T1 sequence (Q02410 whole entry): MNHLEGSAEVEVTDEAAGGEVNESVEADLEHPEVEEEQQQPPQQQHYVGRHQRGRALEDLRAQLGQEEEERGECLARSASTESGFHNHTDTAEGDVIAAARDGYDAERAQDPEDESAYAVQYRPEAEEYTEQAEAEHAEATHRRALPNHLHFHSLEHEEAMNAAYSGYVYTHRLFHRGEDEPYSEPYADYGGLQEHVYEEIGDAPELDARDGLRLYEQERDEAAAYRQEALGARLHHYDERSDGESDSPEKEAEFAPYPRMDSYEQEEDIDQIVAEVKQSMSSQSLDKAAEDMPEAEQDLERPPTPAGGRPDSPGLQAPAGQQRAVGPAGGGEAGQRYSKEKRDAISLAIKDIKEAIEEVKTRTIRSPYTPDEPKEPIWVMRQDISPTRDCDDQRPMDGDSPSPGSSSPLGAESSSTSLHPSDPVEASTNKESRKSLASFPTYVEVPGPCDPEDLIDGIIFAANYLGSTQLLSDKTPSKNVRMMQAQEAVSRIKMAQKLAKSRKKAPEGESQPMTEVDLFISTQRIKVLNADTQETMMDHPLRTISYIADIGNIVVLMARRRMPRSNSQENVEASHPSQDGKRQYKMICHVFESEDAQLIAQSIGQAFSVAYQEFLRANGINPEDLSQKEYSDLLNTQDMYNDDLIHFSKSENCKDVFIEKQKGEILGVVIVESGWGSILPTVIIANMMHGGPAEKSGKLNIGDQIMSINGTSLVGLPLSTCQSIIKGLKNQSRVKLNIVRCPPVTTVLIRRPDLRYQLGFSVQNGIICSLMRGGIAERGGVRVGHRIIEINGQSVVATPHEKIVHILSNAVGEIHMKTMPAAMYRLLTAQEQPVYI
Chain of Glucose-6-phosphate 1-dehydrogenase (P11413 whole entry): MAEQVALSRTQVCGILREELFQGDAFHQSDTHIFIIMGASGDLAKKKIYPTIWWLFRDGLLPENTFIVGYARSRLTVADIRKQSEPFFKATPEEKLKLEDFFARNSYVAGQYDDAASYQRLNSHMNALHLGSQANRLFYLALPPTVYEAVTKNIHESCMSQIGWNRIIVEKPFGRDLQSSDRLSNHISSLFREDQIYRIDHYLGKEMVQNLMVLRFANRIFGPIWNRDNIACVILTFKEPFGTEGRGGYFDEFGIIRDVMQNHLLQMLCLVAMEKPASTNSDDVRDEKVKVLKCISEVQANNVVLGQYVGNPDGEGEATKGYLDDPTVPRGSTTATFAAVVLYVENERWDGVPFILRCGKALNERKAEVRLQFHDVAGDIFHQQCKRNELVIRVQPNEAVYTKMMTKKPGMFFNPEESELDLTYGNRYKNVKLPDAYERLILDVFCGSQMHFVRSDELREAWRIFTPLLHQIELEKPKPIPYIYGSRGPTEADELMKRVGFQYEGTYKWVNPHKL
Chain of Bcl-2-like protein 1 (Q07817 whole entry): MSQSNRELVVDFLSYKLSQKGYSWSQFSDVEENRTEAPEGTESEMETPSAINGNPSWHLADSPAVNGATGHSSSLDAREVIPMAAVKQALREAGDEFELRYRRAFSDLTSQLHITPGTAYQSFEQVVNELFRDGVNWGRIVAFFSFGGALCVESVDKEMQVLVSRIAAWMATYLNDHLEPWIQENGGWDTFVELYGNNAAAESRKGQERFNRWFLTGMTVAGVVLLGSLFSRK
Chain of Cyclin-dependent kinase 5/CDK5 activator 1 (Q00535 whole entry): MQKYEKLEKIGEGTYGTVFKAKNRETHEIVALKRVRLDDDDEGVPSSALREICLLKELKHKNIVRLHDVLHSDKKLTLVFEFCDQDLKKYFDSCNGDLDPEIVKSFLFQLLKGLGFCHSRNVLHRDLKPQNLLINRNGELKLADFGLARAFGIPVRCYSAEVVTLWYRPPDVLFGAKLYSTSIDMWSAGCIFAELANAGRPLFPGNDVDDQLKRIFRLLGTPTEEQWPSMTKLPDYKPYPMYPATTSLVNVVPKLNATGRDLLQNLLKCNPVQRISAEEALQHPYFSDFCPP
Chain of Cyclin-dependent kinase 5/CDK5 activator 1 (Q15078 whole entry, further chain): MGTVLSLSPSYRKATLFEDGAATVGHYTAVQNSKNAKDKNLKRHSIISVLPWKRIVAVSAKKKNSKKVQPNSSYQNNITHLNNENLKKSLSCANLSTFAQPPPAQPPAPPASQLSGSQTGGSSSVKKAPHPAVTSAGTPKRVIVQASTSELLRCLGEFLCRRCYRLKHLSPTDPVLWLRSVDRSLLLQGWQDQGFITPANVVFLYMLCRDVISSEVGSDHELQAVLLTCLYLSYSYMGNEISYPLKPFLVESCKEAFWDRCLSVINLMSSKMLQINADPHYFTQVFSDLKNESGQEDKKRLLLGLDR
Chain of Trypsin (P00761 whole entry): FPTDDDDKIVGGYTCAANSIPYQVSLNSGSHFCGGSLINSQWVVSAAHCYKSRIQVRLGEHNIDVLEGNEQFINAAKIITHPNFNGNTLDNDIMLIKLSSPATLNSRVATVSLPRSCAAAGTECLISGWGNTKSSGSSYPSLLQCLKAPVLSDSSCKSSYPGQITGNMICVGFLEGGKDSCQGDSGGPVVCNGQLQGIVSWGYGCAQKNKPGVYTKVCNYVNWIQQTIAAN

## CC(=O)Oc1ccc(N2C(=O)C3C(C2=O)C2(C)C=CC3(C)O2)cc1 (centres undefined)
[1]
  IC50: 5.05 µM (active)
[2]
  IC50: 6.39 µM (active)
[3]
  IC50: 1.93 µM (active)
[4]
  IC50: 7.82 µM (active)

## CCn1c(SC(C)C(=O)O)nc2sc3c(c2c1=O)CCC3 (centres undefined)
[5]
  IC50: 90.1 µM (not active)
[6]
  IC50: 16.8 µM (not active)
[7]
  IC50: 1.69 µM (active)
[8]
  IC50: 7.65 µM (active)

## O=C(O)COc1ccc(/C=C/C(=O)c2ccc(C3CCCCC3)cc2)cc1
[9]
  IC50: 47.7 µM (active)
[10]
  IC50: 2.16 µM (active)

## COc1ccc(C(=O)c2sc(Nc3ccccc3)nc2N)cc1
[11]
  AC50: 16.8 µM (active)

## O=C(COc1ccc2ccc(=O)oc2c1)NCCc1c[nH]c2ccc(F)cc12
[12]
  AC50: 9.47 µM (active)
[13]
  AC50: 9.56 µM (active)

## CC(N=C1C=C(O)c2cccnc2C1=O)C(O)c1ccccc1 (centres undefined)
[14]
  AC50: 0.754 µM (active)
[15]
  AC50: 111 µM (active)
[16]
  IC50: 33.2 µM (inactive)
[17]
  IC50: 18.5 µM (active)
[18]
  IC50: 5.45 µM (active)

## O=C(Nc1ccccc1C(F)(F)F)c1cc(-c2ccc(O)cc2)on1
[19]
  Absolute IC50 (XBP1): 10 µM
